Experimental data reported in US20100216791A1, “PYRIDINYLQUINAZOLINAMINE DERIVATIVES AND THEIR USE AS B-RAF INHIBITORS” (ASTRAZENECA, priority 2006, published 2010).

Target: Mutant B-Raf (V600E) enzyme (MT B-Raf) (Homo sapiens, UniProt P15056, V600E)
Test: biochemical
Settings: B-Raf Alpha screen comparable to the described assay; phosphorylation of biotinylated HIS-MEK-AVI; results may be an average of two or more results

Chain of Mutant B-Raf (V600E) enzyme (MT B-Raf) (P15056 whole entry V600E): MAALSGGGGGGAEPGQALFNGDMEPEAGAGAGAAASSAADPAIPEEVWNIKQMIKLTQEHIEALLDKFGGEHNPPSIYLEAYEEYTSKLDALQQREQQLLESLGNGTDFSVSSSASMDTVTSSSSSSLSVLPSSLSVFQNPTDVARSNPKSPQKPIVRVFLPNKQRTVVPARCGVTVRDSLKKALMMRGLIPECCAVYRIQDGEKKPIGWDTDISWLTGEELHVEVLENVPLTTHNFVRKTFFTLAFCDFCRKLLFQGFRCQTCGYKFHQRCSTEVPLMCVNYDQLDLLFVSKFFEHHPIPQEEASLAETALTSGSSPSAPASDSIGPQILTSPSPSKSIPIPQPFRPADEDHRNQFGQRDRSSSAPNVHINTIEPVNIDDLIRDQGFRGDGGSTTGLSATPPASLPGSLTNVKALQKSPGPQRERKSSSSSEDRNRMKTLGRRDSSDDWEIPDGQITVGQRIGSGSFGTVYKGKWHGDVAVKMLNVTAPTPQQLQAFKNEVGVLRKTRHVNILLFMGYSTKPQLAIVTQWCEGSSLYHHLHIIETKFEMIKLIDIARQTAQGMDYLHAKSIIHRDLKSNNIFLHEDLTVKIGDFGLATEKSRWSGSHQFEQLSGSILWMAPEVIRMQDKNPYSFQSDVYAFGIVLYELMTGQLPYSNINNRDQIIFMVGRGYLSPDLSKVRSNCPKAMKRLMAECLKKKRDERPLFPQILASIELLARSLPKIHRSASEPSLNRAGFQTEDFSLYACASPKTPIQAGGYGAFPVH

Compound	IC50 [nM]
COCCCNC(C)c1ccc(Nc2ncc3cc(-c4ccncc4)ccc3n2)cc1 (stereo not shown) [Example 55, N-(4-{1-[(3-Methoxypropyl)amino]ethyl}phenyl)-6-pyridin-4-ylquinazolin-2-amine]	22
CC(O)CCNC(C)c1ccc(Nc2ncc3cc(-c4ccncc4)ccc3n2)cc1 (stereo not shown) [Example 56, 4-[(1-{4-[(6-Pyridin-4-ylquinazolin-2-yl)amino]phenyl}ethyl)amino]butan-2-ol]	26
CC(NCCO)c1ccc(Nc2ncc3cc(-c4ccncc4)ccc3n2)cc1 (stereo not shown) [Example 57, 2-[(1-{4-[(6-Pyridin-4-ylquinazolin-2-yl)amino]phenyl}ethyl)amino]ethanol]	29
CC(NCCCO)c1ccc(Nc2ncc3cc(-c4ccncc4)ccc3n2)cc1 (stereo not shown) [Example 58, 3-[(1-{4-[(6-Pyridin-4-ylquinazolin-2-yl)amino]phenyl}ethyl)amino]propan-1-ol]	36
CNCCCNC(=O)c1ccc(Nc2ncc3cc(-c4ccncc4)ccc3n2)cc1 [Example 59, N-[3-(Methylamino)propyl]-4-[(6-pyridin-4-ylquinazolin-2-yl)amino]benzamide]	69
O=C(NCC1CCCN1)c1ccc(Nc2ncc3cc(-c4ccncc4)ccc3n2)cc1 (stereo not shown) [Example 60, 4-[(6-Pyridin-4-ylquinazolin-2-yl)amino]-N-pyrrolidin-2-ylmethylbenzamide]	150
O=C(NCC(O)CO)c1ccc(Nc2ncc3cc(-c4ccncc4)ccc3n2)cc1 (stereo not shown) [Example 61, N-(2,3-Dihydroxypropyl)-4-[(6-pyridin-4-ylquinazolin-2-yl)amino]benzamide]	100
NCCCNC(=O)c1ccc(Nc2ncc3cc(-c4ccncc4)ccc3n2)cc1 [Example 62, N-(3-Aminopropyl)-4-[(6-pyridin-4-ylquinazolin-2-yl)amino]benzamide]	93
NCCNC(=O)c1ccc(Nc2ncc3cc(-c4ccncc4)ccc3n2)cc1 [Example 63, N-(2-Aminoethyl)-4-[(6-pyridin-4-ylquinazolin-2-yl)amino]benzamide]	98
O=C(NCC1CCNCC1)c1ccc(Nc2ncc3cc(-c4ccncc4)ccc3n2)cc1 [Example 64, N-(Piperidin-4-ylmethyl)-4-[(6-pyridin-4-ylquinazolin-2-yl)amino]benzamide]	22
CNCCNC(=O)c1cccc(Nc2ncc3cc(-c4ccncc4)ccc3n2)n1 [Example 65, N-[2-(Methylamino)ethyl]-6-[(6-pyridin-4-ylquinazolin-2-yl)amino]pyridine-2-carboxamide]	1000
CNCCNC(=O)c1ccnc(Nc2ncc3cc(-c4ccncc4)ccc3n2)c1 [Example 66, N-[2-(Methylamino)ethyl]-2-[(6-pyridin-4-ylquinazolin-2-yl)amino]isonicotinamide]	700
O=C(NC1CCNCC1)c1ccc(Nc2ncc3cc(-c4ccncc4)ccc3n2)cc1 [Example 67, N-Piperidin-4-yl-4-[(6-pyridin-4-ylquinazolin-2-yl)amino]benzamide]	110
O=C(NCC1CCCCN1)c1ccc(Nc2ncc3cc(-c4ccncc4)ccc3n2)cc1 (stereo not shown) [Example 68, N-Piperidin-2-ylmethyl-4-[(6-pyridin-4-ylquinazolin-2-yl)amino]benzamide]	110
c1cc(-c2ccc3nc(Nc4ccc(CNCCN5CCOCC5)cc4)ncc3c2)ccn1 [Example 70, N-(4-{[(2-Morpholin-4-ylethyl)amino]methyl}phenyl)-6-pyridin-4-ylquinazolin-2-amine]	74
CN1CCCC1CCNCc1ccc(Nc2ncc3cc(-c4ccncc4)ccc3n2)cc1 (stereo not shown) [Example 72, N-[4-({[2-(1-Methylpyrrolidin-2-yl)ethyl]amino}methyl)phenyl]-6-pyridin-4-ylquinazolin-2-amine]	260
CC(CN(C)C)NCc1ccc(Nc2ncc3cc(-c4ccncc4)ccc3n2)cc1 (stereo not shown) [Example 74, N^1,N^1-Dimethyl-N^2-{4-[(6-pyridin-4-ylquinazolin-2-yl)amino]benzyl}propane-1,2-diamine]	160
CN(CCO)Cc1ccc(Nc2ncc3cc(-c4ccncc4)ccc3n2)cc1 [Example 75, 2-(Methyl{4-[(6-pyridin-4-ylquinazolin-2-yl)amino]benzyl}amino)ethanol]	24
CCN(CCO)Cc1ccc(Nc2ncc3cc(-c4ccncc4)ccc3n2)cc1 [Example 77, 2-(Ethyl{4-[(6-pyridin-4-ylquinazolin-2-yl)amino]benzyl}amino)ethanol]	99
OCc1ccc(Nc2ncc3cc(-c4ccncc4)ccc3n2)cc1 [Example 78, {4-[(6-Pyridin-4-ylquinazolin-2-yl)amino]phenyl}methanol]	66

Second part, the compound after the results:

IC50 [nM]	Compound
130	c1cc(-c2ccc3nc(Nc4ccc(N5CCOCC5)cc4)ncc3c2)ccn1 [Example 79, N-(4-Morpholin-4-ylphenyl)-6-pyridin-4-ylquinazolin-2-amine]
61	Oc1ccc(Nc2ncc3cc(-c4ccncc4)ccc3n2)cc1 [Example 81, 4-[(6-Pyridin-4-ylquinazolin-2-yl)amino]phenol]
3100	FC(F)(F)c1cccc(Nc2ncc3cc(-c4ccncc4)ccc3n2)c1 [Example 82, 6-Pyridin-4-yl-N-[3-(trifluoromethyl)phenyl]quinazolin-2-amine]
630	Cc1cccc(Nc2ncc3cc(-c4ccncc4)ccc3n2)c1 [Example 83, N-(3-Methylphenyl)-6-pyridin-4-ylquinazolin-2-amine]
820	CCCCNS(=O)(=O)c1cccc(Nc2ncc3cc(-c4ccncc4)ccc3n2)c1 [Example 84, N-Butyl-3-[(6-pyridin-4-ylquinazolin-2-yl)amino]benzenesulfonamide]
390	c1cc(Nc2ncc3cc(-c4ccncc4)ccc3n2)cc(N2CCOCC2)c1 [Example 85, N-(3-Morpholin-4-ylphenyl)-6-pyridin-4-ylquinazolin-2-amine]
1500	CC(C)Oc1cccc(Nc2ncc3cc(-c4ccncc4)ccc3n2)c1 [Example 86, N-(3-Isopropoxyphenyl)-6-pyridin-4-ylquinazolin-2-amine]
2200	COc1cc(Nc2ncc3cc(-c4ccncc4)ccc3n2)ccc1C [Example 87, N-(3-Methoxy-4-methylphenyl)-6-pyridin-4-ylquinazolin-2-amine]
1820	Cn1ccc(Nc2ncc3cc(-c4ccncc4)ccc3n2)n1 [Example 88, N-(1-Methyl-1H-pyrazol-3-yl)-6-pyridin-4-ylquinazolin-2-amine]
280	c1cc(-c2ccc3nc(Nc4ccc(N5CCCCC5)cc4)ncc3c2)ccn1 [Example 89, N-(4-Piperidin-1-ylphenyl)-6-pyridin-4-ylquinazolin-2-amine]
110	c1cc(-c2ccc3nc(Nc4ccc(N5CCOCC5)nc4)ncc3c2)ccn1 [Example 90, N-(6-Morpholin-4-ylpyridin-3-yl)-6-pyridin-4-ylquinazolin-2-amine]
92	CCN(CCO)c1ccc(Nc2ncc3cc(-c4ccncc4)ccc3n2)cc1 [Example 92, 2-(Ethyl{4-[(6-pyridin-4-ylquinazolin-2-yl)amino]phenyl}amino)ethanol]
3000	O=S(=O)(c1cccc(Nc2ncc3cc(-c4ccncc4)ccc3n2)c1)N1CCCC1 [Example 93, 6-Pyridin-4-yl-N-[3-(pyrrolidin-1-ylsulfonyl)phenyl]quinazolin-2-amine]
300	O=S(=O)(c1ccc(Nc2ncc3cc(-c4ccncc4)ccc3n2)cc1)N1CCOCC1 [Example 94, N-[4-(Morpholin-4-ylsulfonyl)phenyl]-6-pyridin-4-ylquinazolin-2-amine]
1000	O=S(=O)(c1ccc(Nc2ncc3cc(-c4ccncc4)ccc3n2)cc1)C(F)F [Example 95, N-{4-[(Difluoromethyl)sulfonyl]phenyl}-6-pyridin-4-ylquinazolin-2-amine]
740	O=S(=O)(c1ccc(Nc2ncc3cc(-c4ccncc4)ccc3n2)cc1)N1CCCC1 [Example 96, 6-Pyridin-4-yl-N-[4-(pyrrolidin-1-ylsulfonyl)phenyl]quinazolin-2-amine]
450	CCOc1ccc(Nc2ncc3cc(-c4ccncc4)ccc3n2)cc1 [Example 97, N-(4-Ethoxyphenyl)-6-pyridin-4-ylquinazolin-2-amine]
630	Fc1cccc(Nc2ncc3cc(-c4ccncc4)ccc3n2)c1 [Example 98, N-(3-Fluorophenyl)-6-pyridin-4-ylquinazolin-2-amine]
1100	FC(F)(F)Oc1ccc(Nc2ncc3cc(-c4ccncc4)ccc3n2)cc1 [Example 99, 6-Pyridin-4-yl-N-[4-(trifluoromethoxy)phenyl]quinazolin-2-amine]
1000	O=S(=O)(c1cccc(Nc2ncc3cc(-c4ccncc4)ccc3n2)c1)N1CCCCC1 [Example 100, N-[3-(Piperidin-1-ylsulfonyl)phenyl]-6-pyridin-4-ylquinazolin-2-amine]
1700	COc1cc(Nc2ncc3cc(-c4ccncc4)ccc3n2)cc(C(F)(F)F)c1 [Example 101, N-[3-Methoxy-5-(trifluoromethyl)phenyl]-6-pyridin-4-ylquinazolin-2-amine]
520	O=S(=O)(c1cccc(Nc2ncc3cc(-c4ccncc4)ccc3n2)c1)N1CCOCC1 [Example 102, N-[3-(Morpholin-4-ylsulfonyl)phenyl]-6-pyridin-4-ylquinazolin-2-amine]
62	CS(=O)(=O)c1ccc(Nc2ncc3cc(-c4ccncc4)ccc3n2)cc1 [Example 103, N-[4-(Methylsulfonyl)phenyl]-6-pyridin-4-ylquinazolin-2-amine]
160	CS(=O)(=O)c1cccc(Nc2ncc3cc(-c4ccncc4)ccc3n2)c1 [Example 104, N-[3-(Methylsulfonyl)phenyl]-6-pyridin-4-ylquinazolin-2-amine]
1200	Fc1ccc(Nc2ncc3cc(-c4ccncc4)ccc3n2)cc1 [Example 105, N-(4-Fluorophenyl)-6-pyridin-4-ylquinazolin-2-amine]
23000	Cc1ccc(Nc2ncc3cc(-c4ccncc4)ccc3n2)cc1 [Example 106, N-(4-Methylphenyl)-6-pyridin-4-ylquinazolin-2-amine]
